Tested on: yeast genes (expressed mRNA)
Assay: DNA chip measurement of expressed mRNA of yeast genes after culture with a toxic chemical substance
Type: cell-based, Saccharomyces cerevisiae S288C
Conditions: for level of expressed mRNA in the presence of chemical substance / level in the absence of chemical substance: cultured two hours with the chemical substance; for The level of expressed mRNA in the presence of chemical substance/The level of expressed mRNA in the absence of chemical substance: cultured two hours with substance
Description: Yeast (Saccharomyces cerevisiae S288C (a SUC2mal mel gap2 CUP1)) were cultured at 25° C. on YPD medium (yeast extract 1%, polypeptone 2%, glucose 2%). One of toxic chemical substances was added to the cell at logarithmic growth phase, and the cell was further cultured for two hours. Cell was cultured without any chemical substance in the same condition, and was used as a control. Concentrations of the chemical substances were defined to inhibit the growth of the yeast but not lead to death.
After the completion of cultivation, the culture was centrifuged to collect the cells. To the cells, sodium acetate buffer (50 mM sodium acetate, 10 mM EDTA, 1% SDS) was added, and the mixture was shaken at 65° C. for five minutes, followed by returning to room temperature, and obtaining the supernatant, which procedure was repeated two times. To the supernatant, ½ amount of a solution of phenol/chloroform (1:1) was added, and the mixture was centrifuged to give a supernatant, an equal amount of chloroform was added, and the mixture was centrifuged to give a supernatant. To the supernatant, an equal amount of isopropanol containing 0.3 M sodium acetate was added, and the mixture was allowed to stand at room temperature for 30 minutes, after which the mixture was centrifuged to give sediment of the whole RNAs. Seventy % ethanol was added to the sediment, and the mixture was again centrifuged to give sediment, which was then dried and dissolved in water. mRNA was isolated from the whole RNAs as followings. In view of the fact that a poly A chain is attached to the 3′ terminus of mRNA, a polynucleotide having a poly T structure which was immobilized on the surface of latex beads was used to trap the mRNA, and then the mRNA was washed and eluted with spine column (Oligotex-dT30<Super>mRNA Purification Kit, Takara). Reverse transcription of the mRNA was conducted with a reverse transcriptase (Super Script II Reverse Transcriptase; catalogue No. 18064-014, GibcoBRL) using fluorescence-labeled nucleotides to give cDNAs that were introduced with Cy3-dUTP or Cy5-dUTP during the reverse transcription.
The labeled cDNAs were dissolved in TE buffer (10 mM Tris-HCl/1 mM EDTA, pH 8.0), and the solution was dropped on the DNA chip containing the whole genes of yeast (DNA Chip Research Inc. Japan) so that the cDNAs were hybridized on the DNA chip at 65° C. for over 12 hours. The fluoresces intensity of the DNA chip was read with a scanner, and the ratio relative to the fluorescence intensity resulting from the absence of chemical substance was estimated as the following, which is shown in Tables 1 to 9.
In the Tables, “Intensity” indicated in the rightmost column is a value of the level of expressed mRNA of each gene in control cells as divided by the average level of the expressions of the whole genes. A gene of which mRNA level is lower in control, and is higher in cases of addition of chemical substance, is especially useful in the detection of toxic substances.
Here, when a ratio of an amount of mRNA expressed in the presence of the chemical substance to an amount of mRNA expressed in the absence of the chemical substance is two or more, then it is considered significant.

SMILES: CCCCCCCCCCCCc1ccc(S(=O)(=O)[O-])cc1.[Na+] [(17), Sodium dodecylbenzosulfonate]
- level of expressed mRNA in the presence of chemical substance / level in the absence of chemical substance (yeast gene YNL058C): 0.8
- level of expressed mRNA in the presence of chemical substance / level in the absence of chemical substance (yeast gene YNL063W): 0.9
- The level of expressed mRNA in the presence of chemical substance/The level of expressed mRNA in the absence of chemical substance (yeast gene YNL074C): 1.1
- The level of expressed mRNA in the presence of chemical substance/The level of expressed mRNA in the absence of chemical substance (yeast gene YNL092W): 1.7
- The level of expressed mRNA in the presence of chemical substance/The level of expressed mRNA in the absence of chemical substance (yeast gene YNL115C): 1.6
- The level of expressed mRNA in the presence of chemical substance/The level of expressed mRNA in the absence of chemical substance (yeast gene YNL156C): 1.8
- level of expressed mRNA in the presence of chemical substance / level in the absence of chemical substance (yeast gene YNL176C): 0.6
- level of expressed mRNA in the presence of chemical substance / level in the absence of chemical substance (yeast gene YNL194C): 0.8
- level of expressed mRNA in the presence of chemical substance / level in the absence of chemical substance (yeast gene YNL200C): 1.2
- The level of expressed mRNA in the presence of chemical substance/The level of expressed mRNA in the absence of chemical substance (yeast gene YNL234W): 1.0
- level of expressed mRNA in the presence of chemical substance / level in the absence of chemical substance (yeast gene YNL253W): 1.1
- level of expressed mRNA in the presence of chemical substance / level in the absence of chemical substance (yeast gene YNL276C): 1.1
- The level of expressed mRNA in the presence of chemical substance/The level of expressed mRNA in the absence of chemical substance (yeast gene YNL281W): 0.9
- The level of expressed mRNA in the presence of chemical substance/The level of expressed mRNA in the absence of chemical substance (yeast gene YNL305C): 1.7
- level of expressed mRNA in the presence of chemical substance / level in the absence of chemical substance (yeast gene YNR051C): 0.7
- The level of expressed mRNA in the presence of chemical substance/The level of expressed mRNA in the absence of chemical substance (yeast gene YNR068C): 1.0
- level of expressed mRNA in the presence of chemical substance / level in the absence of chemical substance (yeast gene YOL026C): 2.1
- The level of expressed mRNA in the presence of chemical substance/The level of expressed mRNA in the absence of chemical substance (yeast gene YOL032W): 1.7
- The level of expressed mRNA in the presence of chemical substance/The level of expressed mRNA in the absence of chemical substance (yeast gene YOL036W): 1.1
- The level of expressed mRNA in the presence of chemical substance/The level of expressed mRNA in the absence of chemical substance (yeast gene YOL047C): 1.5
- The level of expressed mRNA in the presence of chemical substance/The level of expressed mRNA in the absence of chemical substance (yeast gene YOL071W): 1.3
- The level of expressed mRNA in the presence of chemical substance/The level of expressed mRNA in the absence of chemical substance (yeast gene YOL082W): 1.6
- The level of expressed mRNA in the presence of chemical substance/The level of expressed mRNA in the absence of chemical substance (yeast gene YOL083W): 1.4
- The level of expressed mRNA in the presence of chemical substance/The level of expressed mRNA in the absence of chemical substance (yeast gene YOL117W): 1.3
- The level of expressed mRNA in the presence of chemical substance/The level of expressed mRNA in the absence of chemical substance (yeast gene YOL131W): 1.1
- The level of expressed mRNA in the presence of chemical substance/The level of expressed mRNA in the absence of chemical substance (yeast gene YOL150C): 2.7
- The level of expressed mRNA in the presence of chemical substance/The level of expressed mRNA in the absence of chemical substance (yeast gene YOL162W): 1.2
- The level of expressed mRNA in the presence of chemical substance/The level of expressed mRNA in the absence of chemical substance (yeast gene YOR019W): 1.7
- level of expressed mRNA in the presence of chemical substance / level in the absence of chemical substance (yeast gene YOR022C): 1.1
- level of expressed mRNA in the presence of chemical substance / level in the absence of chemical substance (yeast gene YOR087W): 0.8
- level of expressed mRNA in the presence of chemical substance / level in the absence of chemical substance (yeast gene YOR138C): 1.1
- The level of expressed mRNA in the presence of chemical substance/The level of expressed mRNA in the absence of chemical substance (yeast gene YOR197W): 1.5
- level of expressed mRNA in the presence of chemical substance / level in the absence of chemical substance (yeast gene YOR253W): 0.9
- level of expressed mRNA in the presence of chemical substance / level in the absence of chemical substance (yeast gene YOR267C): 1.3
- level of expressed mRNA in the presence of chemical substance / level in the absence of chemical substance (yeast gene YOR325W): 0.8
- level of expressed mRNA in the presence of chemical substance / level in the absence of chemical substance (yeast gene YPL005W): 1.2
- The level of expressed mRNA in the presence of chemical substance/The level of expressed mRNA in the absence of chemical substance (yeast gene YPL087W): 2.1
- level of expressed mRNA in the presence of chemical substance / level in the absence of chemical substance (yeast gene YPL150W): 1.4
- level of expressed mRNA in the presence of chemical substance / level in the absence of chemical substance (yeast gene YPL152W): 1.2
- level of expressed mRNA in the presence of chemical substance / level in the absence of chemical substance (yeast gene YPL168W): 1.1
- level of expressed mRNA in the presence of chemical substance / level in the absence of chemical substance (yeast gene YPL180W): 1.0
- level of expressed mRNA in the presence of chemical substance / level in the absence of chemical substance (yeast gene YPL188W): 0.7
- The level of expressed mRNA in the presence of chemical substance/The level of expressed mRNA in the absence of chemical substance (yeast gene YPL196W): 1.4
- The level of expressed mRNA in the presence of chemical substance/The level of expressed mRNA in the absence of chemical substance (yeast gene YPL206C): 1.4
- level of expressed mRNA in the presence of chemical substance / level in the absence of chemical substance (yeast gene YPL221W): 1.5
- The level of expressed mRNA in the presence of chemical substance/The level of expressed mRNA in the absence of chemical substance (yeast gene YPL222W): 1.1
- level of expressed mRNA in the presence of chemical substance / level in the absence of chemical substance (yeast gene YPL225W): 1.0
- The level of expressed mRNA in the presence of chemical substance/The level of expressed mRNA in the absence of chemical substance (yeast gene YPR023C): 1.0
- level of expressed mRNA in the presence of chemical substance / level in the absence of chemical substance (yeast gene YPR049C): 1.0
- level of expressed mRNA in the presence of chemical substance / level in the absence of chemical substance (yeast gene YPR146C): 1.0
- level of expressed mRNA in the presence of chemical substance / level in the absence of chemical substance (yeast gene YPR148C): 0.9
- The level of expressed mRNA in the presence of chemical substance/The level of expressed mRNA in the absence of chemical substance (yeast gene YPR151C): 1.3
- level of expressed mRNA in the presence of chemical substance / level in the absence of chemical substance (yeast gene YPR172W): 1.1

— US20100041089A1, “IMPROVED METHOD FOR DETECTING CHEMICAL […]” (priority 2006, published 2010)
